Measured values from ChEMBL document CHEMBL5241112, “Insights into the recent progress in the medicinal chemistry of pyranopyrimidine analogs” (RSC Med Chem, 2022).
pIC50: −log10 of the molar value. ≈ marks a conversion by molar mass, not a printed value.

Assays:
Staphylococcus aureus [1] = assay: Antibacterial activity against Staphylococcus aureus assessed as inhibition of bacterial growth; format: functional
Bacillus cereus = assay: Antibacterial activity against Bacillus cereus ATCC-14579 assessed as diameter of inhibition zone incubated for 24 hrs by disc diffusion method; format: functional
Bacillus subtilis [2] = assay: Antibacterial activity against Bacillus subtilis ATCC 6633 assessed as diameter of inhibition zone incubated for 24 hrs by disc diffusion assay; format: functional
Vibrio cholerae = assay: Antibacterial activity against Vibrio cholerae MTCC 3906 assessed as bacterial growth inhibition by broth microdilution method; format: functional
Salmonella typhimurium = assay: Antibacterial activity against Salmonella typhimurium MTCC 98 assessed as bacterial growth inhibition by broth microdilution method; format: functional, Salmonella enterica subsp. enterica serovar Typhimurium; details: Salmonella enterica
Serratia marcescens [3] = assay: Antibacterial activity against Serratia marcescens assessed as diameter of inhibition zone by disc diffusion method; format: functional
Bacillus subtilis [4] = assay: Antibacterial activity against Bacillus subtilis ATCC 6633 assessed as inhibition of bacterial growth incubated for 24 hrs by broth macrodilution method; format: functional
Staphylococcus aureus [5] = assay: Antibacterial activity against Staphylococcus aureus NCTC-7447 assessed as diameter of inhibition zone incubated for 24 hrs by disc diffusion method; format: functional
Serratia marcescens [6] = assay: Antibacterial activity against Serratia marcescens IMRU-70 assessed as diameter of inhibition zone incubated for 24 hrs by disc diffusion method; format: functional
Proteus mirabilis = assay: Antibacterial activity against Proteus mirabilis NTCC-289 assessed as diameter of inhibition zone incubated for 24 hrs by disc diffusion method; format: functional
[7] = biological target: Alpha-glucosidase (Mus musculus); assay: Inhibition of mouse alpha-glucosidase assessed as decrease in release of p-nitrophenol using pNPG as substrate preincubated for 10 mins followed by substrate addition and measured after 30 mins by spectroscopic analysis
Alpha-glucosidase = Alpha-glucosidase (Saccharomyces cerevisiae S288c, UniProt P53341+P38158+P07265); assay: Inhibition of Saccharomyces cerevisiae alpha-glucosidase assessed as decrease in release of p-nitrophenol using pNPG as substrate incubated for 10 mins by spectroscopic analysis; format: protein assay
Aspergillus fumigatus [8] = assay: microbe, parasite or virus in culture; format: functional; details: ATCC204305, dose 50 mg/ml, time 24 hrs, read-out: DIZ
Streptococcus pneumoniae = assay: Antibacterial activity against Streptococcus pneumoniae ATCC BAA-255/R6 assessed as diameter of inhibition zone at 50 mg/ml incubated for 24 hrs by paper disk diffusion method; format: functional; details: read-out: DIZ
Staphylococcus aureus [9] = assay: Antibacterial activity against Staphylococcus aureus ATCC6538-P assessed as diameter of inhibition zone at 50 mg/ml incubated for 24 hrs by paper disk diffusion method; format: functional; details: read-out: DIZ
Klebsiella pneumoniae = assay: Antibacterial activity against Klebsiella pneumoniae MGH 78578 assessed as diameter of inhibition zone at 50 mg/ml incubated for 24 hrs by paper disk diffusion method; format: functional; details: read-out: DIZ
Escherichia coli [10] = assay: Antibacterial activity against Escherichia coli MTCC 739 assessed as bacterial growth inhibition; format: functional
Bacillus subtilis [11] = assay: Antibacterial activity against Bacillus subtilis MTCC 121 assessed as bacterial growth inhibition; format: functional
Bacillus subtilis [12] = assay: Antibacterial activity against Bacillus subtilis MTCC 121 assessed as minimum bactericidal concentration; format: functional
Raoultella planticola = assay: Antibacterial activity against Raoultella planticola MTCC 530 assessed as bacterial growth inhibition; format: functional; details: Klebsiella planticola
Staphylococcus aureus [13] = assay: Antibacterial activity against Staphylococcus aureus MLS-16 MTCC 2940 assessed as bacterial growth inhibition; format: functional
Pseudomonas aeruginosa = assay: Antibacterial activity against Pseudomonas aeruginosa MTCC 2453 assessed as bacterial growth inhibition; format: functional
Staphylococcus aureus [14] = assay: Antibacterial activity against Staphylococcus aureus MTCC 96 assessed as minimum bactericidal concentration; format: functional
Micrococcus luteus = assay: Antibacterial activity against Micrococcus luteus MTCC 2470 assessed as bacterial growth inhibition; format: functional
Staphylococcus aureus [15] = assay: Antibacterial activity against Staphylococcus aureus MLS-16 MTCC 2940 assessed as minimum bactericidal concentration; format: functional
Aspergillus niger [16] = assay: Antifungal activity against Aspergillus niger assessed as inhibition of fungal growth at MIC by microdilution method; format: functional
Bacillus pumilus [17] = assay: Antibacterial activity against Bacillus pumilus assessed as minimum bactericidal concentration by microdilution method; format: functional
Candida albicans [18] = assay: […] activity against Candida albicans assessed as […] by microdilution method; format: functional
Bacillus pumilus [19] = assay: Antibacterial activity against Bacillus pumilus assessed as inhibition of bacterial growth at MIC by microdilution method; format: functional
Enterococcus faecalis [20] = assay: Antibacterial activity against […] assessed as inhibition of bacterial growth at MIC by microdilution method; format: functional
Bacillus pumilus [21] = assay: Antibacterial activity against Bacillus pumilus assessed as inhibition of bacterial growth by microdilution method; format: functional
Enterococcus faecalis [22] = assay: Antibacterial activity against […] assessed as minimum bactericidal concentration by microdilution method; format: functional
Enterococcus faecalis [23] = assay: Antibacterial activity against […] assessed as inhibition of bacterial growth by microdilution method; format: functional
Enterobacter cloacae [24] = assay: Antibacterial activity against Enterobacter cloacae assessed as inhibition of bacterial growth by microdilution method; format: functional
Candida albicans [25] = assay: Antifungal activity against Candida albicans assessed as inhibition of fungal growth at MIC by microdilution method; format: functional
Enterobacter cloacae [26] = assay: Antibacterial activity against Enterobacter cloacae assessed as minimum bactericidal concentration by microdilution method; format: functional
Candida albicans [27] = assay: Antifungal activity against Candida albicans assessed as inhibition of fungal growth by microdilution method; format: functional
Aspergillus niger [28] = assay: Antifungal activity against Aspergillus niger assessed as inhibition of fungal growth by microdilution method; format: functional
Escherichia coli [29] = assay: Antibacterial activity against Escherichia coli assessed as inhibition of bacterial growth by microdilution method; format: functional
Aspergillus niger [30] = assay: […] activity against Aspergillus niger assessed as […] by microdilution method; format: functional
Enterobacter cloacae [31] = assay: Antibacterial activity against Enterobacter cloacae assessed as inhibition of bacterial growth at MIC by microdilution method; format: functional
HepG2 = assay: Anticancer activity against human HepG2 cells assessed as reduction in cell viability; format: functional, cell-based
HCT-116 = assay: cells; details: Homo sapiens
MCF7 = assay: Anticancer activity against human MCF7 cells assessed as reduction in cell viability; format: functional, cell-based
DNA = assay: Binding affinity to DNA (unknown origin) assessed as DNA intercalation; format: nucleic-acid assay
Staphylococcus aureus [32] = assay: Antibacterial activity against Staphylococcus aureus ATCC 25923 assessed as inhibition of bacterial growth incubated for 24 hrs by broth macrodilution method; format: functional
Staphylococcus aureus [33] = assay: Antibacterial activity against Staphylococcus aureus ATCC 25923 assessed as diameter of inhibition zone incubated for 24 hrs by disc diffusion assay; format: functional
DNA topoisomerase II = DNA topoisomerase II (Homo sapiens, UniProt P11388+Q02880); assay: Inhibition of DNA topoisomerase 2 (unknown origin); format: protein assay
[34] = tested on: Mycobacterium tuberculosis; assay: Antitubercular activity against Mycobacterium tuberculosis H37Rv assessed as bacterial growth inhibition at 250 ug/ml; format: functional
Aspergillus fumigatus [35] = assay: Antifungal activity against Aspergillus fumigatus MTCC 227 assessed as fungal growth inhibition by broth microdilution method; format: functional
Clostridium tetani = assay: Antibacterial activity against Clostridium tetani MTCC 449 assessed as bacterial growth inhibition by broth microdilution method; format: functional
Plasmodium falciparum = assay: microbe, parasite or virus in culture
[36] = tested on: Mycobacterium tuberculosis; assay: Antitubercular activity against Mycobacterium tuberculosis H37Rv assessed as bacterial growth inhibition at 100 ug/ml; format: functional
Aspergillus niger [37] = assay: Antifungal activity against Aspergillus niger ATCC 6275 assessed as inhibition of […] growth incubated for 7 days by broth macrodilution method; format: functional; details: ATCC 6275, 168 h, time 7 day
Aspergillus niger [38] = assay: Antifungal activity against Aspergillus niger ATCC 6275 assessed as diameter of inhibition zone incubated for 7 days by disc diffusion assay; format: functional; details: time 7 day

## CC1(C)S[C@@H]2[C@H](NC(=O)[C@H](N)c3ccccc3)C(=O)N2[C@H]1C(=O)O [AMPICILLIN]
Staphylococcus aureus [1]
  MIC: 250 µg/mL (≈ 715 µM)
Bacillus cereus
  diameter of the inhibition zone (DIZ): 25 mm
Bacillus subtilis [2]
  diameter of the inhibition zone (DIZ): 32.4 mm
Vibrio cholerae
  MIC: 100 µg/mL (≈ 286 µM)
Salmonella typhimurium
  MIC: 100 µg/mL (≈ 286 µM)
Serratia marcescens [3]
  diameter of the inhibition zone (DIZ): 25 mm
Bacillus subtilis [4]
  MIC: 0.45 µg/mL (≈ 1.29 µM)
Staphylococcus aureus [5]
  diameter of the inhibition zone (DIZ): 25 mm
Serratia marcescens [6]
  diameter of the inhibition zone (DIZ): 25 mm
Proteus mirabilis
  diameter of the inhibition zone (DIZ): 25 mm

## COc1cc(/C=C/C(=O)C2=C(/C=C/c3ccc(O)c(OC)c3)Oc3[nH]c(=O)[nH]c(=O)c3C2c2c(Cl)cccc2Cl)ccc1O (stereo not given)
[7]
  IC50: 46040 nM
Alpha-glucosidase
  IC50: 27600 nM

## Cc1nc2c(c(=O)[nH]1)C(c1ccc(Cl)cc1)C=C(c1cc3ccccc3oc1=O)O2 (stereo not given)
Aspergillus fumigatus [8]
  zone of inhibition at 50000 µg/mL: 10 mm
Streptococcus pneumoniae
  zone of inhibition at 50000 µg/mL: 14 mm
Staphylococcus aureus [9]
  zone of inhibition at 50000 µg/mL: 10 mm
Klebsiella pneumoniae
  zone of inhibition at 50000 µg/mL: 20 mm

## Cc1ccc(C2c3c(Nc4cccc([N+](=O)[O-])c4)ncnc3Oc3c2c(=O)oc2ccccc32)cc1 (stereo not given)
Escherichia coli [10]
  MIC: 15.6 µg/mL (≈ 32.6 µM)
Bacillus subtilis [11]
  MIC: 31.2 µg/mL (≈ 65.2 µM)
Bacillus subtilis [12]
  MBC: 15.6 µg/mL (≈ 32.6 µM)
Raoultella planticola
  MIC: 15.6 µg/mL (≈ 32.6 µM)
Staphylococcus aureus [13]
  MIC: 15.6 µg/mL (≈ 32.6 µM)
Pseudomonas aeruginosa
  MIC: 15.6 µg/mL (≈ 32.6 µM)
Staphylococcus aureus [14]
  MBC: 15.6 µg/mL (≈ 32.6 µM)
Micrococcus luteus
  MIC: 15.6 µg/mL (≈ 32.6 µM)
Staphylococcus aureus [15]
  MBC: 15.6 µg/mL (≈ 32.6 µM)

## CCOC(=O)C1=C(N)OC2C(C(=O)N(c3ccc(C)cc3)C(=S)N2c2ccc(C)cc2)C1c1ccccc1 (stereo not given)
Aspergillus niger [16]
  inhibition (INH): 85.1%
Bacillus pumilus [17]
  MBC: 125 µg/mL (≈ 237 µM)
Candida albicans [18]
  MBC: 62.5 µg/mL (≈ 118 µM)
Bacillus pumilus [19]
  inhibition (INH): 66.4%
Enterococcus faecalis [20]
  inhibition (INH): 69.5%
Bacillus pumilus [21]
  MIC: 31.2 µg/mL (≈ 59.1 µM)
Enterococcus faecalis [22]
  MBC: 62.5 µg/mL (≈ 118 µM)
Enterococcus faecalis [23]
  MIC: 15.6 µg/mL (≈ 29.6 µM)
Enterobacter cloacae [24]
  MIC: 62.5 µg/mL (≈ 118 µM)
Candida albicans [25]
  inhibition (INH): 79.7%
Enterobacter cloacae [26]
  MBC: 62.5 µg/mL (≈ 118 µM)
Candida albicans [27]
  MIC: 31.2 µg/mL
Aspergillus niger [28]
  MIC: 15.6 µg/mL
Escherichia coli [29]
  MIC: 15.6 µg/mL (≈ 29.6 µM)
Aspergillus niger [30]
  MBC: 500 µg/mL (≈ 948 µM)
Enterobacter cloacae [31]
  inhibition (INH): 29.2%

## CCC(C)n1cnc2c(c1=N)C(c1ccc(OC)cc1)c1c([nH]c(=O)[nH]c1=O)O2 (stereo not given)
HepG2
  pIC50: 5.68
Bacillus subtilis [2]
  diameter of the inhibition zone (DIZ): 26 mm
HCT-116
  pIC50: 5.58
MCF7
  pIC50: 5.61
DNA
  pIC50: 4.57
Bacillus subtilis [4]
  MIC: 0.097 µg/mL (≈ 0.245 µM)
Staphylococcus aureus [32]
  MIC: 1.56 µg/mL (≈ 3.95 µM)
Staphylococcus aureus [33]
  diameter of the inhibition zone (DIZ): 20.8 mm
DNA topoisomerase II
  IC50: 752 nM

## COc1cc(/C=C/C(=O)C2=C(/C=C/c3ccc(O)c(OC)c3)Oc3[nH]c(=O)[nH]c(=O)c3C2c2ccc([N+](=O)[O-])cc2)ccc1O (stereo not given)
[7]
  IC50: 106800 nM
Alpha-glucosidase
  IC50: 12410 nM

## Cc1nn(-c2ccccc2)c(-n2ccnc2)c1C1C(C#N)=C(N)Oc2[nH]c(=O)[nH]c(=O)c21 (stereo not given)
[34]
  inhibition at 250 µg/mL: 95%
Aspergillus fumigatus [35]
  MIC: 200 µg/mL (≈ 467 µM)
Vibrio cholerae
  MIC: 662 µg/mL (≈ 1550 µM)
Clostridium tetani
  MIC: 100 µg/mL (≈ 233 µM)
Plasmodium falciparum
  IC50: 0.97 µg/mL (≈ 2.26 µM)
[36]
  inhibition at 100 µg/mL: 92%

## C[C@@H]1[C@H](O)[C@@H](C)/C=C/C=C/C=C/C=C/C=C/C=C/C=C/[C@H](O[C@@H]2O[C@H](C)[C@@H](O)[C@H](N)[C@@H]2O)C[C@@H]2O[C@](O)(C[C@@H](O)C[C@@H](O)[C@H](O)CC[C@@H](O)C[C@@H](O)CC(=O)O[C@H]1C)C[C@H](O)[C@H]2C(=O)O [AMPHOTERICIN B]
Aspergillus niger [37]
  MIC: 0.781 µg/mL (≈ 0.845 µM)
Aspergillus niger [38]
  diameter of the inhibition zone (DIZ): 26.3 mm
